Test results as given in patent US5446025A, “Formulations and method of the percutaneous administration of leuprolide” (Abbott Laboratories, priority 1992, dated 1995).

Format: physicochemical
Protocol: Partitioning studies of leuprolide free base and the acetate, palmitate, and decanesulfonate salts were conducted in Type I glass culture tubes fitted with poly(tetrafluroethylene)-lined caps. Octanol-saturated water was used to prepare solutions of leuprolide free base and the leuprolide salts at concentrations of 500 μg/ml. Ten ml of each solution and 10 ml of water-saturated octanol were placed in the glass tubes which were then tightly capped and shaken for 24 hours at 30° C. At the end of this time, the tubes were centrifuged at 2000 rpm for ten minutes. The water and octanol layers were separated and each analyzed for the concentrations of leuprolide or leuprolide salt. The octanol-water distribution coefficients, Kd, was calculated from the ratio of concentration in the non-aqueous phase and the aqueous phase.

For `CCNC(=O)[C@@H]1CCCN1C(=O)[C@H](CCCNC(=N)N)NC(=O)[C@H](CC(C)C)NC(=O)[C@@H](CC(C)C)NC(=O)[C@H](Cc1ccc(O)cc1)NC(=O)[C@H](CO)NC(=O)[C@H](Cc1c[nH]c2ccccc12)NC(=O)[C@H](Cc1c[nH]cn1)NC(=O)[C@@H]1CCC(=O)N1` [Leuprolide free base, leuprolide], the “Lipophilicity relative to the acetate salt, as measured by the octanol/water distribution coefficient” value was “roughly six”.
